From patent US5219855A, “Anxiolytic drug” (Mitsubishi Kasei Corporation, priority 1988, dated 1993) come the findings set out here.

Counter-ions that a name gives are not always drawn.

This assay addresses T1, 5-HT1A receptor (Rattus norvegicus, UniProt P19327).
T1 construct: a rat brain was homogenized in Tris buffer and centrifuged; from tissue; host or cells: rat brain membrane preparation
T1 sequence (P19327 1-422): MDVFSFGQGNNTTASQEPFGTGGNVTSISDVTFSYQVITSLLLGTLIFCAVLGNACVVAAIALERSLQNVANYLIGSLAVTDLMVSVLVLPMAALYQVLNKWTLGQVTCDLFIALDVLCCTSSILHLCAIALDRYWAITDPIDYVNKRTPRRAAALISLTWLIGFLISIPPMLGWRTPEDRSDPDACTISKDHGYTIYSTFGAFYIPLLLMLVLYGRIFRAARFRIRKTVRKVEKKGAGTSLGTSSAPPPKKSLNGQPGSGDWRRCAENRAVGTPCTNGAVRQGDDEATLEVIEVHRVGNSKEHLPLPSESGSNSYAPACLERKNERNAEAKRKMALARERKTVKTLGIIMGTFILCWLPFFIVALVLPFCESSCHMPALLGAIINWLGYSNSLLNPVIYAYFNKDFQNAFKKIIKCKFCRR
Briefly: binding assay using [3H]8-OH-DPAT, rat brain membrane preparation.
Protocol: To say more exactly, a rat brain was homogenized in Tris buffer and centrifuged. The resultant sediment was rehomogenized using Tris buffer and incubated at 37° C. for 10 minutes, followed by centrifugation. The resulting deposit was homogenized in Tris buffer containing pargyline, calcium chloride and ascorbic acid and subjected to binding assay (membrane preparation).
The assay was carried out by combining the membrane preparation with [3H]8-OH-DPAT and the test compound and then incubating at 37° C. for 10 minutes.
Subsequently, the mixture was immediately filtered through a Whatman GF/B filter and the radio-activity remaining on the filter was measured by liquid chromatography.
The binding capacity of the test compound to 5-HT1A receptor was expressed as Ki value calculated by the formula: [formula] wherein [L] denotes the concentration of [3H]8-OH-DPAT, kd represents the dissociation constant, and IC50 represents the concentration of the test compound required to produce a 50% inhibition of [3H]8-OH-DPAT binding.
As for `[O-][S+](CCCN1CCN(c2ccccc2)CC1)c1ccc2c(c1)OCCCO2` (stereo not shown) [No. 22], affinity was put at a Ki of 25.4 nM.
`c1cnc(N2CCN(CCCOc3ccc4c(c3)OCO4)CC2)nc1` [No. 3] yielded a Ki of 10.1 nM.
Take `c1ccc(N2CCN(CCCOc3ccc4c(c3)OCO4)CC2)nc1` [No. 2]: affinity was put at a Ki of 2.4 nM.
In turn, `c1ccc(N2CCN(CCCCOc3ccc4c(c3)OCO4)CC2)cc1` [No. 4] gave an inhibition constant Ki of 10.1 nM.
The figure for `c1ccc(N2CCN(CCOc3ccc4c(c3)OCO4)CC2)cc1` [No. 16] is 127 nM.
The figure for `O=C1c2ccccc2S(=O)(=O)N1CCCCN1CCN(c2ncccn2)CC1` [Ipsapirone, 2-(4-(4-(2-pyrimidinyl)-1-piperazinyl)butyl)-1,2-benzisothiazol-3-(2H)one-1,1-dioxydehydrochloride, reference compound] is 2.2 nM; for `O=C(CCCN1CCN(c2ccccc2)CC1)c1ccc2c(c1)OCO2` [No. 17] it is 5.7 nM; for `Fc1ccc(N2CCN(CCCOc3ccc4c(c3)OCO4)CC2)cc1` [No. 12] it is 16 nM.
In the case of `c1ccc(N2CCN(CCCSc3ccc4c(c3)OCCO4)CC2)cc1` [No. 21] it was 71.2 nM; in that of `c1ccc(N2CCN(CCCCOc3ccc4c(c3)OCCO4)CC2)cc1` [No. 19], 16 nM.
In turn, `FC(F)(F)c1cccc(N2CCN(CCCOc3ccc4c(c3)OCO4)CC2)c1` [No. 13] registered a Ki of 8 nM.
In the case of `c1ccc(N2CCN(CCCOc3ccc4c(c3)OCCO4)CC2)cc1` [No. 15] it was 5.7 nM; in that of `O=C(CCCCN1CCN(c2ccccc2)CC1)c1ccc2c(c1)OCO2` [No. 20], 10.1 nM.
`COc1cc(OCCCN2CCN(c3ccccc3)CC2)cc(OC)c1OC` [No. 7] returned a Ki of 5.7 nM.
`FC(F)(F)c1cccc(N2CCN(CCCCOc3ccc4c(c3)OCO4)CC2)c1` [No. 6]: the affinity corresponds to a Ki of 55.9 nM.
In the case of `c1ccc(N2CCN(CCCOc3ccc4c(c3)OCO4)CC2)cc1` [No. 1] it was 4.7 nM.
Consider `OC(CCCN1CCN(c2ccccc2)CC1)c1ccc2c(c1)OCO2` (stereo not shown) [No. 18], for which affinity was put at a Ki of 8 nM.
In the case of `O=C(CCN1CCN(c2ccccc2)CC1)Nc1ccc2c(c1)OCO2` [No. 10] it was 25.4 nM; in that of `Fc1ccc(N2CCN(CCCCOc3ccc4c(c3)OCO4)CC2)cc1` [No. 5], 33.2 nM.
In the case of `c1ccc(N2CCN(CCCNc3ccc4c(c3)OCO4)CC2)cc1` [No. 11] it was 18 nM.
In turn, `COc1ccc(OCCCN2CCN(c3ccccc3OC)CC2)cc1OC` [No. 8] showed an inhibition constant (Ki) of 14.3 nM.
The molecule `Cc1ccccc1N1CCN(CCCOc2ccc3c(c2)OCO3)CC1` [No. 14] showed a Ki of 101 nM.

Broadly, the Ki is a dissociation constant, usually derived from enzyme kinetics or from competition with a known ligand. A higher Ki goes with a looser hold on the target.
